This is an account of results in ChEMBL document CHEMBL5465560, “Selectivity Literature for EUbOPEN Chemogenomic Library” (2024).

The structures appear in SMILES notation.

Assay [1] has as its target T1, Serine/threonine-protein kinase Nek3 (Homo sapiens) (UniProt P51956).
T1 sequence (whole entry): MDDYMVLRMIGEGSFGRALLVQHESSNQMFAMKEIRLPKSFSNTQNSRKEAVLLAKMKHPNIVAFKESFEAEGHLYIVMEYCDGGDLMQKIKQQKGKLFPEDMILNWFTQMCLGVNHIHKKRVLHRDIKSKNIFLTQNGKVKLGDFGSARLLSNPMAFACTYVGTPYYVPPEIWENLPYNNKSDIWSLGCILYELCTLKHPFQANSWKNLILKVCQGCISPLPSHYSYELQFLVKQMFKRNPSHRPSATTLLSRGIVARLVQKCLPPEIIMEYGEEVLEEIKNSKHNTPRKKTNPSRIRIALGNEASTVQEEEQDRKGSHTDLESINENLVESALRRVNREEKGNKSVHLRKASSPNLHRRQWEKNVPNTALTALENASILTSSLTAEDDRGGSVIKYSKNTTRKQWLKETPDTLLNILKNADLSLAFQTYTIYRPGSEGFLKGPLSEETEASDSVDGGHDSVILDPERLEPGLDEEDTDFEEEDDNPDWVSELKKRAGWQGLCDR
Description: Selectivity interaction (ProQinase) EUB0000171b NEK3.

The target in assay [2] is T2, Mitogen-activated protein kinase kinase kinase kinase 3 (Homo sapiens) (UniProt Q8IVH8).
T2 sequence (whole entry): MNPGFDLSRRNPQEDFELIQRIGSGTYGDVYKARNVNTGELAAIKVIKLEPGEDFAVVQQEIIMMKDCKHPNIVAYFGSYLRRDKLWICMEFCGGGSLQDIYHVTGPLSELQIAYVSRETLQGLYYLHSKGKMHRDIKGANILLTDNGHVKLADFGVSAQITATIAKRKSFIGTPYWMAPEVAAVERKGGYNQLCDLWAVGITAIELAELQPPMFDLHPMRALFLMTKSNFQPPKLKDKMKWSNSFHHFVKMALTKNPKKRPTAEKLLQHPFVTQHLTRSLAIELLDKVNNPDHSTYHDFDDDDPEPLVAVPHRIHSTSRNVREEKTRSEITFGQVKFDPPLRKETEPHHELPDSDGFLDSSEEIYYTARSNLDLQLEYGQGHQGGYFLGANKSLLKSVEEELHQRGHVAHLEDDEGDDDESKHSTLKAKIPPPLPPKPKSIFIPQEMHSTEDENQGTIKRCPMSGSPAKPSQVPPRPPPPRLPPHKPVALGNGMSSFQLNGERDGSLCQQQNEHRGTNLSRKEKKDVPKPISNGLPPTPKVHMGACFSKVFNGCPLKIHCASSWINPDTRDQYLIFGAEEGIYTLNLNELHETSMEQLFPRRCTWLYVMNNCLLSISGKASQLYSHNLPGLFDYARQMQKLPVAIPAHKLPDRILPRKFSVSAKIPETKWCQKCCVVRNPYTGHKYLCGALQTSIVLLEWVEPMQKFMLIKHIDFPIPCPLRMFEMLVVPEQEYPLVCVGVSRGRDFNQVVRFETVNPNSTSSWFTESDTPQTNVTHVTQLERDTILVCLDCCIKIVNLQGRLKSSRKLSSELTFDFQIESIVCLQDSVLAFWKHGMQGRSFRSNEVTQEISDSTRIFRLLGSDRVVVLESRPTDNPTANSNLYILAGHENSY
The note with it: at 10 µM.

For assay [3], the target named is Receptor tyrosine-protein kinase erbB-2 (Homo sapiens, UniProt P04626). The note with it: at 10 µM.
Chain of Receptor tyrosine-protein kinase erbB-2 (P04626 whole entry): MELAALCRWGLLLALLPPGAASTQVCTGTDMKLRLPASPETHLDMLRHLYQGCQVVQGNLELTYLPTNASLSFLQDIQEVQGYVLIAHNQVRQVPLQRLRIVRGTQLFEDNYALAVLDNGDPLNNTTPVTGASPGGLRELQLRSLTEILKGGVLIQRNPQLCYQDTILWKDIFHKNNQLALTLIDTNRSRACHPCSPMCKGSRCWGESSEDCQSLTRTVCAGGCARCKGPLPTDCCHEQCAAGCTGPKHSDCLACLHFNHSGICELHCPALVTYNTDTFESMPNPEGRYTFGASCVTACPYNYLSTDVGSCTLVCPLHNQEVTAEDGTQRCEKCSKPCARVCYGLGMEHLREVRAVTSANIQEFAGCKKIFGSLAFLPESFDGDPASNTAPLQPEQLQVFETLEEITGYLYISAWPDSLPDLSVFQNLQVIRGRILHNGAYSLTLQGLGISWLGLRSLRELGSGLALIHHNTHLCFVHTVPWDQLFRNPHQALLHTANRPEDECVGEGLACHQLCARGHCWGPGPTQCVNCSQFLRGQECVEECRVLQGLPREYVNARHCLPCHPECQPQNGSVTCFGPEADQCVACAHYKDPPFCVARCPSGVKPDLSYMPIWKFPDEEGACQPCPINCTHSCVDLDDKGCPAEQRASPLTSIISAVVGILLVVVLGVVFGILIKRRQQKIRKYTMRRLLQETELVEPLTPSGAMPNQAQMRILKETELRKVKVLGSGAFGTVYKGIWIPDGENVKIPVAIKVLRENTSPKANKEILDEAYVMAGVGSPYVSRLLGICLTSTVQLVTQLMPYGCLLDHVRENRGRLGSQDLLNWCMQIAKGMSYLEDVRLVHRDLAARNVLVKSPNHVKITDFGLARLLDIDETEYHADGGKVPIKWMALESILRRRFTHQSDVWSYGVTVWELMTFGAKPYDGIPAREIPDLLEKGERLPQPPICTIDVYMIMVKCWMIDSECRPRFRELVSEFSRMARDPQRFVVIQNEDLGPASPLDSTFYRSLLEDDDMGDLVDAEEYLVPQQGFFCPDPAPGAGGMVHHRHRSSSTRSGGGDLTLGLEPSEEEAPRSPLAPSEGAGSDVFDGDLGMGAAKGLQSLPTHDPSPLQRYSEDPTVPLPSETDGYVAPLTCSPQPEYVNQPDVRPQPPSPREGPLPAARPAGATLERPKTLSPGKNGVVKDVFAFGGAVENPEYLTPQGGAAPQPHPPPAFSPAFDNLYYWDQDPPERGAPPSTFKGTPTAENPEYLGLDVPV
For assay [4], the target named is Mitogen-activated protein kinase 14 (Homo sapiens, UniProt Q16539). As to the kind of experiment: Selectivity interaction (KinomeScan (DiscoverX)) EUB0001049a MAPK14. The note with it: at 1 µM.
Chain of Mitogen-activated protein kinase 14 (Q16539 whole entry): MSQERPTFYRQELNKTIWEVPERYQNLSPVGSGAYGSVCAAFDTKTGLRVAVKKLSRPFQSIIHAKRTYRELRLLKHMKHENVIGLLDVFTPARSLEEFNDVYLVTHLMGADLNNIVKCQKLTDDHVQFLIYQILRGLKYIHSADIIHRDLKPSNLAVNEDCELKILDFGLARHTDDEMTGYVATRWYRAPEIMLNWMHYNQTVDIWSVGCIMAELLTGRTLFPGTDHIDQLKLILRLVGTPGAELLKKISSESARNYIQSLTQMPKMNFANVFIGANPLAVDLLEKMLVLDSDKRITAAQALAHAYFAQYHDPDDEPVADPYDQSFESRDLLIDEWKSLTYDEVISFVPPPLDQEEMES
In assay [5] the target is T3, Mitogen-activated protein kinase kinase kinase 2 (Homo sapiens) (UniProt Q9Y2U5).
T3 sequence (whole entry): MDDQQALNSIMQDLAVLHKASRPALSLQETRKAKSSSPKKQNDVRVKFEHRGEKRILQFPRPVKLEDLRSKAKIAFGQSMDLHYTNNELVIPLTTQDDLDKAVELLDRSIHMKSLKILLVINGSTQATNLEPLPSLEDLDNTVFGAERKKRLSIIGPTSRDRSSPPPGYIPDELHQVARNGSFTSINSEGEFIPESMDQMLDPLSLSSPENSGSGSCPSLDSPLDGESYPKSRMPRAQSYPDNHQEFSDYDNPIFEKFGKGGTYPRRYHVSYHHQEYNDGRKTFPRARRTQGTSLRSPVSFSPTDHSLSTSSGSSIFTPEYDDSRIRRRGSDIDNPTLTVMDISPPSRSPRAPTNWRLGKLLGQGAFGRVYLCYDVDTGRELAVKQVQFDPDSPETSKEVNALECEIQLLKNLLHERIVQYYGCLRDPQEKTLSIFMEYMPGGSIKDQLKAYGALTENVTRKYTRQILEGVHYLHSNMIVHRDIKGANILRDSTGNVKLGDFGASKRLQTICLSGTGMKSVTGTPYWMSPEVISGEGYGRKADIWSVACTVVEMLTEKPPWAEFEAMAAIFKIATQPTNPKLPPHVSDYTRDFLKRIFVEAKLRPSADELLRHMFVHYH
As to the kind of experiment: Selectivity interaction (KinomeScan (DiscoverX)) EUB0001049a MAP3K2. The note with it: at 1 µM.

The target of assay [6] is Phosphatidylinositol 4-phosphate 5-kinase type-1 gamma (Homo sapiens) (UniProt O60331). Description: Selectivity interaction (KinomeScan (DiscoverX)) EUB0000655a PIP5K1C. The note with it: at 10 µM.
The target of assay [7] is Bromodomain adjacent to zinc finger domain protein 1A (Homo sapiens) (UniProt Q9NRL2). Description: Selectivity interaction (Bromodomain panel (DSF asssay)) EUB0000270b BAZ1A.
Chain of Bromodomain adjacent to zinc finger domain protein 1A (Homo sapiens) (Q9NRL2 whole entry, the tested form may be a part): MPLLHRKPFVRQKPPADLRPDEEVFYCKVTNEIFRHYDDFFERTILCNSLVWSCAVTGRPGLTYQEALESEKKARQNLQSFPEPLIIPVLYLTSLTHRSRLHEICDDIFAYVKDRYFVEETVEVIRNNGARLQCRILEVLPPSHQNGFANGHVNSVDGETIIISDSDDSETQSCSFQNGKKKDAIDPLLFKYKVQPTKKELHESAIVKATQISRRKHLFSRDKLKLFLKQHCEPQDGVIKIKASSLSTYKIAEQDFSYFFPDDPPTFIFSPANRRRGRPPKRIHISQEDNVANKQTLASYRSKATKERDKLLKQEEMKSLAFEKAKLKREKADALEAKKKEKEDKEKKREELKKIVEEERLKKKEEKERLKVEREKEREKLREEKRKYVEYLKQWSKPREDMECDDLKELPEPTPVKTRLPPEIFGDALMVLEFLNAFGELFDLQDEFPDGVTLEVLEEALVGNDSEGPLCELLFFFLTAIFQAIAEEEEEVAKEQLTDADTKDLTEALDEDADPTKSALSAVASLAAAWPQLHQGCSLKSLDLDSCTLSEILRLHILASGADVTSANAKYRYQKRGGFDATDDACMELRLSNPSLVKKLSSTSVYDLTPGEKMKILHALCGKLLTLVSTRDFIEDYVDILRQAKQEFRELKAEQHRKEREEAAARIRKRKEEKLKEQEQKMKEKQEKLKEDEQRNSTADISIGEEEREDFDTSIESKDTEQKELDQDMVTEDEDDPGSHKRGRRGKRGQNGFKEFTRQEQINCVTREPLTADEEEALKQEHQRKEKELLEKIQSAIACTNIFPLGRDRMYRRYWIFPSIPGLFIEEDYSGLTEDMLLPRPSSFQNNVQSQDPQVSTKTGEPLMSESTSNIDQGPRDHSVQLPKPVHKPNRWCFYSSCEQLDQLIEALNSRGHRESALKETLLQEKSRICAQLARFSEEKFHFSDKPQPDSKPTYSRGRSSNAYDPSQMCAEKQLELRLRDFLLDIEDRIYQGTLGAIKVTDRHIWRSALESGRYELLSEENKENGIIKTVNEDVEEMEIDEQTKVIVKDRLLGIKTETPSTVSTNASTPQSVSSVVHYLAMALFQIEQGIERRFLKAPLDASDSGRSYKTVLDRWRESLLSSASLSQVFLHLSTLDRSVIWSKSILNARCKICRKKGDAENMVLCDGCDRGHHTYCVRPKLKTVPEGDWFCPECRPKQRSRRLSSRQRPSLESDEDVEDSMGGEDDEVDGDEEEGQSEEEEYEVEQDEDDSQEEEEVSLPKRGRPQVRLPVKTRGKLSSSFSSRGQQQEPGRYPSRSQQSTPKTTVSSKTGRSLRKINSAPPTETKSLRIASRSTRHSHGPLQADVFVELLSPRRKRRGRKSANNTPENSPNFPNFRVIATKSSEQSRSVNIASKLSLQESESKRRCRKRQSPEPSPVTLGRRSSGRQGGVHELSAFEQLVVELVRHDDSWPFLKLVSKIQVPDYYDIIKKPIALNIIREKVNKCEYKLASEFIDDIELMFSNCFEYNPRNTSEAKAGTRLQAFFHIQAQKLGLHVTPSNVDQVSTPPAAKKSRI
Assay [8] has as its target Insulin-like growth factor 1 receptor (Homo sapiens, UniProt P08069). Description: Selectivity interaction (KinomeScan (DiscoverX)) EUB0000607a IGF1R. The note with it: at 10 µM.
Assay [9] has as its target T4, Serine/threonine-protein kinase VRK1 (Homo sapiens) (UniProt Q99986).
T4 sequence (whole entry): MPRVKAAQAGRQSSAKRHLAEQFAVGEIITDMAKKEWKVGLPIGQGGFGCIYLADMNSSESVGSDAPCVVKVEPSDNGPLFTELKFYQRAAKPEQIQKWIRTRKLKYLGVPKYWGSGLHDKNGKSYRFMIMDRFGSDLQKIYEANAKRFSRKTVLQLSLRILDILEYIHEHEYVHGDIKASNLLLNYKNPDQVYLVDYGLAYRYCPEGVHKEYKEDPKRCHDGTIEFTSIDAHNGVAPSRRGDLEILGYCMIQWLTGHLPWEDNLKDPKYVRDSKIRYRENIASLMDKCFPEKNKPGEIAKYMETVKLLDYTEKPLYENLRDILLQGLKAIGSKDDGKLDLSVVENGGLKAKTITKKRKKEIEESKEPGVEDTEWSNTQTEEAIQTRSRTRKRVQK
Description: Selectivity interaction (Kinase panel (DSF assay)) EUB0001559a VRK1. (Differential scanning fluorimetry follows unfolding on heating by fluorescence.)

Assay [10] is described as follows: Selectivity interaction (Kinase panel (KiNativ target engagement assay in Jurkat cells)) EUB0001635a STLK6. The note with it: Selectivity number of off-targets 0; Selectivity number of targets 233; Source Knowledge https://www.sciencedirect.com/science/article/pii/S2451945619300674?via%3Dihub; at 1 µM.

Chain of Insulin-like growth factor 1 receptor (P08069 31-736 limits assumed): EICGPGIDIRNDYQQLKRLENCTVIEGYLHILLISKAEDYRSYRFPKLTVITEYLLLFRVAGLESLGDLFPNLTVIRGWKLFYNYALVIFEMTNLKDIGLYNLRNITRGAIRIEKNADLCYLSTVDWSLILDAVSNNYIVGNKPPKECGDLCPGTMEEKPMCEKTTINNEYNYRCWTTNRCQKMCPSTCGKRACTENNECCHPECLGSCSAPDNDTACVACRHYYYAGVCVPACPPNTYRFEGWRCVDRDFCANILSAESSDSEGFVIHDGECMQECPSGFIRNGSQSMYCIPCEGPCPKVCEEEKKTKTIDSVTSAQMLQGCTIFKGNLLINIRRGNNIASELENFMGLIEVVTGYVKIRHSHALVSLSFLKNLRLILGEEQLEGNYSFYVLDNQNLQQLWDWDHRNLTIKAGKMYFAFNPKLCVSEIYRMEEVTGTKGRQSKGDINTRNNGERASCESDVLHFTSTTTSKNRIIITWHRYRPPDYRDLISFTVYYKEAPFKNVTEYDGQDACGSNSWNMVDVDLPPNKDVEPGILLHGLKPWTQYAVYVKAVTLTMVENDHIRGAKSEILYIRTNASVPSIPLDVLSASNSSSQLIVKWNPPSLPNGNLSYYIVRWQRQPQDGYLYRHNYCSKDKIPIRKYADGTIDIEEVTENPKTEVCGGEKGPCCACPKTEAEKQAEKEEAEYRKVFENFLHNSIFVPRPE
Chain of Insulin-like growth factor 1 receptor (P08069 741-1367 limits assumed): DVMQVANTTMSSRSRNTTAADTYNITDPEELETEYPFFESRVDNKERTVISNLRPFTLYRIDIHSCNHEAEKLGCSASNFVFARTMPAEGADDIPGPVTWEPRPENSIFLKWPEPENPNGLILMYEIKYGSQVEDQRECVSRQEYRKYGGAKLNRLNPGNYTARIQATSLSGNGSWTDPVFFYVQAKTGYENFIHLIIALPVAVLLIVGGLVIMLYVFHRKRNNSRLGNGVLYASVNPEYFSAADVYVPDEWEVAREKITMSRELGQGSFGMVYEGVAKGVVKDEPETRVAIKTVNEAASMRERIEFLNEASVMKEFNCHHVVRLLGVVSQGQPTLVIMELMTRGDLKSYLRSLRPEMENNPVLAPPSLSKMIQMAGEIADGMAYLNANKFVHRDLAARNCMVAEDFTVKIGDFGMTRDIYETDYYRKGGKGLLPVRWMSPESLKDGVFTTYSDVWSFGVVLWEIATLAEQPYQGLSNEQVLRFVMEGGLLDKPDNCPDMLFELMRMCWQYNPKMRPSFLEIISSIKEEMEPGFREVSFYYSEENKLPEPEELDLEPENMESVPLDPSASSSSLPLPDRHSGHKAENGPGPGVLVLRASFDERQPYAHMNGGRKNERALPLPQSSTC

As to `C=CC(=O)Nc1cccc(C(=O)Nc2ccc(Nc3cc(-c4[nH]c(SC)nc4C)ccn3)cc2)c1`, the results for the % of control in [1] (at 1 µM) and in [1] (at 5 µM) were 73% and 50%, respectively.

Consider `Cc1cc([C@@H](C)Nc2ccccc2C(=O)O)c2nc(N3CCOCC3)cc(=O)n2c1` [AZD-6482], for which, in assay [2], the % of control came to 88%. Turning to `CCN(CC)CCCCNc1ncc2cc(-c3cc(OC)cc(OC)c3)c(NC(=O)NC(C)(C)C)nc2n1`, the % of control in assay [3] worked out at 100%. `COc1cc(Nc2nc(C)cc(-c3cnn4nc(OC)ccc34)n2)cc(C(F)(F)F)c1`: the % of control in [4] and in assay [5] was 87% throughout. On to `CN(C)CCOc1ccc(-c2nc(-c3ccncc3)c(-c3ccc4c(c3)CC/C4=N\O)[nH]2)cc1`, for which the % of control in assay [6] worked out at 52%.

For the compound `Cc1cc(CN)cc(C)c1-c1ncn(C)c1-c1cncn1C`, the dTM in assay [7] was -1.36 K.

In turn, `CNC(=O)Nc1ccc(-c2nc(N3CC4CCC(C3)O4)c3cnn(C4CCC5(CC4)OCCO5)c3n2)cc1` came in with a % of control in [8] of 93%. Regarding `CN(C(=O)c1cnn2cccnc12)c1cc2c(cc1N1CCOCC1)C(=O)N(C[C@@H](F)C(C)(C)O)C2`, the dTM in [9] amounted to 0.2 K. Turning to `C=CC(=O)Nc1ccc(C(=O)Nc2[nH]nc3c2CN(C(=O)N[C@H](CN(C)C)c2ccccc2)C3(C)C)cc1`, the “% of engagement” value in [10] is listed as -9%.
